Common to all, as to type: cell-based
The target in experiment [1] is T1, Substance-P receptor (Homo sapiens, UniProt P25103). Nature of the experiment: Binding affinity against recombinant human tachykinin receptor 1 in CHO cells using [3H]-Sar SP as a radioligand.
A further experiment concerns the target T2, Substance-K receptor (Homo sapiens, UniProt P21452).
T2 sequence (P21452 whole entry): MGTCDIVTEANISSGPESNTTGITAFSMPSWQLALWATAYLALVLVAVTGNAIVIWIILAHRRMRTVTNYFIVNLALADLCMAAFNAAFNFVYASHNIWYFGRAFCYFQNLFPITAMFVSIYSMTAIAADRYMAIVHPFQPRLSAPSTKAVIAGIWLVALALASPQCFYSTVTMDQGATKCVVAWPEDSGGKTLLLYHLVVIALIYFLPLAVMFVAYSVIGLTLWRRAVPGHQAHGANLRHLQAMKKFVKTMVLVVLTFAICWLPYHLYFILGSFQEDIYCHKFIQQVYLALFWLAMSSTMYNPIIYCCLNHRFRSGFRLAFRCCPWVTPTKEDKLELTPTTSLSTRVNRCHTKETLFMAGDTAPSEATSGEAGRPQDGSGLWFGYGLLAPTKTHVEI
Nature of the experiment: (§1) Binding affinity against recombinant human tachykinin receptor 2 in CHO cells using [3H]NKA as a radioligand.

Experiment [2] deals with T3, Substance-K receptor (Homo sapiens) (UniProt P21452).
T3 sequence (whole entry): T2 sequence (P21452 whole entry)
The description is as §1. Also noted: concentration or dose not given beside the values. The conditions noted are these: concentration not given here.

The target of experiment [3] is T1, Substance-P receptor. Nature of the experiment: The compound was evaluated for the binding affinity against recombinant human Tachykinin receptor 1 in CHO cells using [3H]-Sar SP as a radioligand. The settings on record: concentration not given here.

T1 sequence (P25103 whole entry): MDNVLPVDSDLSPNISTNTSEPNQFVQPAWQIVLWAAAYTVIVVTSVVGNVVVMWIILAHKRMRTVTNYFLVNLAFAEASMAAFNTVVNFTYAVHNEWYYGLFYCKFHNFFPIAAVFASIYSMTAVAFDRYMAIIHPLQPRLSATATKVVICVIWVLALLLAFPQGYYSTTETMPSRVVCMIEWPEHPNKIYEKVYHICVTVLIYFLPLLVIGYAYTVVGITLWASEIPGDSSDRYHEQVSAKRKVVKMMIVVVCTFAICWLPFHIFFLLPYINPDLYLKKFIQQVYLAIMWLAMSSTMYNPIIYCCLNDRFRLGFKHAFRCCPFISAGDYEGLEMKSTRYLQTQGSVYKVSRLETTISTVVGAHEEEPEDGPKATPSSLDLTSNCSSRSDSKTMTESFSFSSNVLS

For orientation: Ki means a dissociation constant, usually derived from enzyme kinetics or from competition with a known ligand. Turning to `CN(C/C(=N\OCCC[N+](C)(C)C)C(CCN1CCC(N2CCCCC2=O)CC1)c1ccc(Cl)c(Cl)c1)C(=O)c1cc(Cl)cc(Cl)c1` (centres undefined), the Ki on Substance-P receptor [1] turned out to be 1.8 nM; on Substance-K receptor, 590 nM.
On the same counts, the results for `N=C(CO/N=C(\COCc1cc(C(F)(F)F)cc(C(F)(F)F)c1)C(CCN1CCC(O)(c2ccccc2)CC1)c1ccc(Cl)c(Cl)c1)NO` (centres undefined) are 17 nM and 19 nM.
On the same counts, the results for `CN(C/C(=N\OCC(C)(C)O)C(CCN1CCC(N2CCCCC2=O)CC1)c1ccc(Cl)c(Cl)c1)C(=O)c1cc(Cl)cc(Cl)c1` (centres undefined) are 1.9 nM and 23 nM.
By inhibition is commonly meant how much of the control response was suppressed. As for `CO/C=C(\COCc1cc(C(F)(F)F)cc(C(F)(F)F)c1)C(CCN1CCC(O)(c2ccccc2)CC1)c1ccc(Cl)c(Cl)c1` (centres undefined), the Ki at Substance-P receptor [1] was 33 nM. The inhibition in experiment [2] was 35%.
For the molecule `COCCO/N=C(\COCc1cc(C(F)(F)F)cc(C(F)(F)F)c1)C(CCN1CCC(O)(c2ccccc2)CC1)c1ccc(Cl)c(Cl)c1` (centres undefined), the Ki turned out to be 7 nM on Substance-P receptor [1] and 50 nM at Substance-K receptor.
For `COCCNC(=O)CO/N=C(\CN(C)C(=O)c1cc(Cl)cc(Cl)c1)C(CCN1CCC(N2CCCCC2=O)CC1)c1ccc(Cl)c(Cl)c1` (centres undefined) the same measures were 2.2 nM and 48 nM.
For `CN(C/C(=N\OCCCn1ccnc1)C(CCN1CCC(N2CCCCC2=O)CC1)c1ccc(Cl)c(Cl)c1)C(=O)c1cc(Cl)cc(Cl)c1` (centres undefined) the same measures were 1.6 nM and 6.8 nM.
For `COC(=O)CO/N=C(\CN(C)C(=O)c1cc(Cl)cc(Cl)c1)C(CCN1CCC(N2CCCCC2=O)CC1)c1ccc(Cl)c(Cl)c1` (centres undefined), the Ki at Substance-P receptor [1] worked out at 4.7 nM; at Substance-K receptor, 16.7 nM.
For `C=CCO/N=C(\COCc1cc(C(F)(F)F)cc(C(F)(F)F)c1)C(CCN1CCC(O)(c2ccccc2)CC1)c1ccc(Cl)c(Cl)c1` (centres undefined) the same measures were 100 nM and 215 nM.
For `CN(C/C(=N\OCCC[S+](C)[O-])C(CCN1CCC(N2CCCCC2=O)CC1)c1ccc(Cl)c(Cl)c1)C(=O)c1cc(Cl)cc(Cl)c1` (centres undefined) the same measures were 0.8 nM and 3.5 nM.
As to `CC(C)CO/N=C(\COCc1cc(C(F)(F)F)cc(C(F)(F)F)c1)C(CCN1CCC(O)(c2ccccc2)CC1)c1ccc(Cl)c(Cl)c1` (centres undefined), the inhibition at Substance-P receptor [3] is 43%; in experiment [2] it was 11%.
In the case of `N#CO/N=C(\COCc1cc(C(F)(F)F)cc(C(F)(F)F)c1)C(CCN1CCC(O)(c2ccccc2)CC1)c1ccc(Cl)c(Cl)c1` (centres undefined), the Ki stood at 15 nM on Substance-P receptor [1] and 19 nM at Substance-K receptor.
On the same counts, the results for `CN(C/C(=N\OCCCO)C(CCN1CCC(N2CCCCC2=O)CC1)c1ccc(Cl)c(Cl)c1)C(=O)c1cc(Cl)cc(Cl)c1` (centres undefined) are 0.7 nM and 1.5 nM.
For the molecule `CN(C/C(=N\OCc1c[nH]cn1)C(CCN1CCC(N2CCCCC2=O)CC1)c1ccc(Cl)c(Cl)c1)C(=O)c1cc(Cl)cc(Cl)c1` (centres undefined), the Ki on Substance-P receptor [1] amounted to 2.2 nM; on Substance-K receptor it was 8.5 nM.
For `CN(C/C(=N\OCC#N)C(CCN1CCC(N2CCCCC2=O)CC1)c1ccc(Cl)c(Cl)c1)C(=O)c1cc(Cl)cc(Cl)c1` (centres undefined) the same measures were 1.5 nM and 1.4 nM.
For the molecule `CN(C)CCO/N=C(\COCc1cc(C(F)(F)F)cc(C(F)(F)F)c1)C(CCN1CCC(O)(c2ccccc2)CC1)c1ccc(Cl)c(Cl)c1` (centres undefined), on Substance-P receptor [1], the Ki was 103 nM. In addition, the inhibition in experiment [2] was found to be 11%.
As to `CN(C/C(=N\OCC(=N)NO)[C@H](CCN1CCC(N2CCCCC2=O)CC1)c1ccc(Cl)c(Cl)c1)C(=O)c1cc(Cl)cc(Cl)c1`, the inhibition constant Ki at Substance-P receptor [1] was 0.4 nM; on Substance-K receptor it was 0.5 nM.
On the same counts, the results for `CN(C/C(=N\OCCCS(C)(=O)=O)C(CCN1CCC(N2CCCCC2=O)CC1)c1ccc(Cl)c(Cl)c1)C(=O)c1cc(Cl)cc(Cl)c1` (centres undefined) are 0.9 nM and 3.2 nM.
On the same counts, the results for `CN(C/C(=N\OCCCn1cncn1)C(CCN1CCC(N2CCCCC2=O)CC1)c1ccc(Cl)c(Cl)c1)C(=O)c1cc(Cl)cc(Cl)c1` (centres undefined) are 0.7 nM and 4.8 nM.
For `CN(C/C(=N\OCF)C(CCN1CCC(N2CCCCC2=O)CC1)c1ccc(Cl)c(Cl)c1)C(=O)c1cc(Cl)cc(Cl)c1` (centres undefined) the same measures were 0.8 nM and 0.8 nM.
With `CO/N=C(\CN(C)C(=O)c1cc(Cl)cc(Cl)c1)C(CCN1CCC(N2CCCCC2=O)CC1)c1ccc(Cl)c(Cl)c1` (centres undefined), the values for the inhibition constant (Ki) at Substance-P receptor [1] and on Substance-K receptor were 4.7 nM and 1.6 nM, respectively.
As to `O=C(O)CO/N=C(\COCc1cc(C(F)(F)F)cc(C(F)(F)F)c1)C(CCN1CCC(O)(c2ccccc2)CC1)c1ccc(Cl)c(Cl)c1` (centres undefined), the Ki at Substance-P receptor [1] was found to be 8 nM. For the same molecule, the inhibition in experiment [2] turned out to be 20%.
Regarding `O=C(COCc1cc(C(F)(F)F)cc(C(F)(F)F)c1)C(CCN1CCC(O)(c2ccccc2)CC1)c1ccc(Cl)c(Cl)c1` (centres undefined), the Ki at Substance-P receptor [1] was determined as 15 nM; on Substance-K receptor, 236 nM.
For `COCO/N=C(\COCc1cc(C(F)(F)F)cc(C(F)(F)F)c1)C(CCN1CCC(O)(c2ccccc2)CC1)c1ccc(Cl)c(Cl)c1` (centres undefined) the same measures were 49 nM and 42 nM.
On the same counts, the results for `CN(C/C(=N\OCCCn1cnnn1)C(CCN1CCC(N2CCCCC2=O)CC1)c1ccc(Cl)c(Cl)c1)C(=O)c1cc(Cl)cc(Cl)c1` (centres undefined) are 0.8 nM and 17 nM.
For `OCCO/N=C(\COCc1cc(C(F)(F)F)cc(C(F)(F)F)c1)C(CCN1CCC(O)(c2ccccc2)CC1)c1ccc(Cl)c(Cl)c1` (centres undefined) the same measures were 20 nM and 14 nM.
In the case of `CCO/N=C(\COCc1cc(C(F)(F)F)cc(C(F)(F)F)c1)C(CCN1CCC(O)(c2ccccc2)CC1)c1ccc(Cl)c(Cl)c1` (centres undefined), the inhibition constant Ki at Substance-P receptor [1] was 81 nM; at Substance-K receptor it was 107 nM.
On the same counts, the results for `CN(C/C(=N\OCC(=O)O)C(CCN1CCC(N2CCCCC2=O)CC1)c1ccc(Cl)c(Cl)c1)C(=O)c1cc(Cl)cc(Cl)c1` (centres undefined) are 0.7 nM and 394 nM.
For `CN(C/C(=N\OCC(=O)NO)C(CCN1CCC(N2CCCCC2=O)CC1)c1ccc(Cl)c(Cl)c1)C(=O)c1cc(Cl)cc(Cl)c1` (centres undefined) the same measures were 1.2 nM and 4.2 nM.
On the same counts, the results for `CN(C/C(=N\OCCN1CCNCC1)C(CCN1CCC(N2CCCCC2=O)CC1)c1ccc(Cl)c(Cl)c1)C(=O)c1cc(Cl)cc(Cl)c1` (centres undefined) are 0.5 nM and 50 nM.
On to `CN(C/C(=N\OCCO)C(CCN1CCC(N2CCCCC2=O)CC1)c1ccc(Cl)c(Cl)c1)C(=O)c1cc(Cl)cc(Cl)c1` (centres undefined), for which the Ki on Substance-P receptor [1] stood at 0.6 nM; at Substance-K receptor it was 0.8 nM.
For `COCCO/N=C(\CN(C)C(=O)c1cc(Cl)cc(Cl)c1)C(CCN1CCC(N2CCCCC2=O)CC1)c1ccc(Cl)c(Cl)c1` (centres undefined) the same measures were 2.4 nM and 3.1 nM.
On the same counts, the results for `CN(C/C(=N\OCCCNS(C)(=O)=O)C(CCN1CCC(N2CCCCC2=O)CC1)c1ccc(Cl)c(Cl)c1)C(=O)c1cc(Cl)cc(Cl)c1` (centres undefined) are 1.2 nM and 4.5 nM.
For `CN(C/C(=N\OCCCn1cccn1)C(CCN1CCC(N2CCCCC2=O)CC1)c1ccc(Cl)c(Cl)c1)C(=O)c1cc(Cl)cc(Cl)c1` (centres undefined) the same measures were 1.7 nM and 25 nM.
In the case of `CN(C/C(=N\OCC(N)=O)C(CCN1CCC(N2CCCCC2=O)CC1)c1ccc(Cl)c(Cl)c1)C(=O)c1cc(Cl)cc(Cl)c1` (centres undefined), the figures for the Ki on Substance-P receptor [1] and at Substance-K receptor were 0.9 nM and 2 nM, respectively.
As to `CN(C/C(=N\OC(F)F)C(CCN1CCC(N2CCCCC2=O)CC1)c1ccc(Cl)c(Cl)c1)C(=O)c1cc(Cl)cc(Cl)c1` (centres undefined), the Ki on Substance-P receptor [1] is 1.7 nM; on Substance-K receptor, 5 nM.
For `NC(=O)CO/N=C(\COCc1cc(C(F)(F)F)cc(C(F)(F)F)c1)C(CCN1CCC(O)(c2ccccc2)CC1)c1ccc(Cl)c(Cl)c1` (centres undefined) the same measures were 17 nM and 58 nM.
For `CNC(=O)CO/N=C(\COCc1cc(C(F)(F)F)cc(C(F)(F)F)c1)C(CCN1CCC(O)(c2ccccc2)CC1)c1ccc(Cl)c(Cl)c1` (centres undefined) the same measures were 24 nM and 45 nM.
With `CC/C=C(\COCc1cc(C(F)(F)F)cc(C(F)(F)F)c1)C(CCN1CCC(O)(c2ccccc2)CC1)c1ccc(Cl)c(Cl)c1` (centres undefined), the Ki on Substance-P receptor [1] came to 57 nM. The inhibition in experiment [2] was 28%.
On to `CN(C)/N=C(\COCc1cc(C(F)(F)F)cc(C(F)(F)F)c1)C(CCN1CCC(O)(c2ccccc2)CC1)c1ccc(Cl)c(Cl)c1` (centres undefined), for which the inhibitory constant (Ki) stood at 38 nM on Substance-P receptor [1] and 24 nM at Substance-K receptor.
Consider `CN(C/C(=N\OCCn1ccnc1)C(CCN1CCC(N2CCCCC2=O)CC1)c1ccc(Cl)c(Cl)c1)C(=O)c1cc(Cl)cc(Cl)c1` (centres undefined), for which the values for the Ki at Substance-P receptor [1] and on Substance-K receptor were 2.8 nM and 5.4 nM, respectively.
On the same counts, the results for `CN(C/C(=N\OCCCN)C(CCN1CCC(N2CCCCC2=O)CC1)c1ccc(Cl)c(Cl)c1)C(=O)c1cc(Cl)cc(Cl)c1` (centres undefined) are 0.7 nM and 8.8 nM.
Regarding `CSCCCO/N=C(\CN(C)C(=O)c1cc(Cl)cc(Cl)c1)C(CCN1CCC(N2CCCCC2=O)CC1)c1ccc(Cl)c(Cl)c1` (centres undefined), the results for the Ki at Substance-P receptor [1] and at Substance-K receptor were 7.4 nM and 11.5 nM, respectively.
On the same counts, the results for `CNC(=O)NCCCO/N=C(\CN(C)C(=O)c1cc(Cl)cc(Cl)c1)C(CCN1CCC(N2CCCCC2=O)CC1)c1ccc(Cl)c(Cl)c1` (centres undefined) are 1 nM and 1.7 nM.
For `COC(=O)CO/N=C(\COCc1cc(C(F)(F)F)cc(C(F)(F)F)c1)C(CCN1CCC(O)(c2ccccc2)CC1)c1ccc(Cl)c(Cl)c1` (centres undefined) the same measures were 25 nM and 198 nM.
With `CONC(COCc1cc(C(F)(F)F)cc(C(F)(F)F)c1)C(CCN1CCC(O)(c2ccccc2)CC1)c1ccc(Cl)c(Cl)c1` (centres undefined), the Ki on Substance-P receptor [1] is 25 nM; on Substance-K receptor, 350 nM.
For `CN(C/C(=N\OCCCS(=O)(=O)O)C(CCN1CCC(N2CCCCC2=O)CC1)c1ccc(Cl)c(Cl)c1)C(=O)c1cc(Cl)cc(Cl)c1` (centres undefined) the same measures were 3.3 nM and 2.7 nM.

(Values after ChEMBL document CHEMBL1135235, “Structure-activity relationships of oxime neurokinin antagonists: oxime modifications” (Bioorg Med Chem Lett, 2002).)
